From patent US20230174649A1, “PHARMACEUTICAL COMPOSITIONS CONTAINING ANTI-CD47 ANTIBODIES” (I-MAB BIOPHARMA US LIMITED, priority 2020, published 2023)
“And” between values parts separate entries of the source, which are not always exact repeats. Identical values can stand only once.

Key:
CD47 = experiment: FACS analysis of expression level of CD47 on tumor cell surface; assay type: cell-based, Human; conditions: Toledo cells, 12 hours
Protocol: (§1) For FACS analysis, on the day of analysis (day 1), Toledo cells were seeded into 96 well plate and cultured at a density of 0.2×10^6 cells/well. Then the cells were treated with the selected small molecule therapeutic agents for 12 hours.
(§2) On day 2, cells were harvested, washed twice and then re-suspended in 100 uL FACS buffer subject to FACS analysis. For detection of the expression of calreticulin and CD47, cells were incubated with anti-calreticulin antibody and commercially available anti-CD47 antibody (BD Biosciences, Catalog number: 561249) in dark at 4° C. for 30 mins.
(§3) Then, the cells were subject to FACS analysis. Data was acquired and analyzed.

Calreticulin = experiment: FACS analysis of expression level of calreticulin on tumor cell surface; assay type: cell-based, Human; conditions: Toledo cells, 12 hours
Protocol: as §1, §2, §3

Toledo Cells = experiment: FACS-based phagocytosis assay, macrophages cocultured with Toledo cells; assay type: cell-based, Human
Protocol: FACS-based phagocytosis assays were performed to evaluate the phagocytic abilities of macrophages.
Toledo Cells (a tumor cell line, as a target) were labelled with CellTrace™ Far Red and plated into 96-well plate at a density of 0.15×10^6 cells/well for 12 hours. The Macrophages were prepared as discussed above and then labelled with CellTrace Violet. Next, the macrophages were added into the plate as an effector at an effector:target (Toledo) ratio of 1:3, giving a final density of macrophages at 0.05×10^6 cells/well. Macrophages and tumor cells were cocultured for 2-6 h at 37° C. in the presence of the indicated treatments (small molecule therapeutic agents, CD47 antibody, CD20 antibody or combinations). The incubation time depending on the phagocytosis rate, expecting phagocytosis of 5-20% cells.
Then, cells were acquired and data were analyzed.

macrophages = experiment: Macrophage Viability Assay (CellTiter-Glo); assay type: cell-based, Human; conditions: for Macrophage viability (CellTiter-Glo Luminescent Cell Viability Assay): 16 hours, three replicate lines
Protocol: Then, the monocytes isolated by MACS were subsequently cultured in fresh complete medium supplemented with recombinant human granulocyte-macrophage colony-stimulating factor GM-CSF (50 ng/ml) and human recombinant IL-4 (35 ng/ml) to activate differentiated macrophages. After 6 days of culture (on day 7), cells were harvested, pooled together and counted for next use.
The cells from Example 2 were plated into a 96-well flat bottom plate at a density of 0.05×10^6 cells/well. After 2 hours of incubation, the macrophages were well attached to the plate. Then selected small molecule therapeutic agents were added to the well and cocultured for 16 hours. On day 8, macrophage viability was assessed by CellTiter-Glo® Luminescent Cell Viability Assay, according to the manufacture's instruction.

WSU-DLCL2 cells = experiment: Anti-tumor efficacy in WSU-DLCL2 tumor xenograft model; assay type: in vivo, NOD/SCID mice; conditions: 5 mg/kg each agent; for T/C (%) / TGI (%): day 43
Source text: To establish the xenograft model, human diffuse large B Cell lymphoma (WSU-DLCL2 cells) were subcutaneously (s.c.) injected into 6- to 7-week-old NOD/SCID mice (Shanghai Lingchang Biotechnology Co., Ltd, Shanghai, China) for tumor development. When tumor volume reaches a mean value of approximately 94 mm^3, 32 mice were divided into 4 groups of 8 equally and injected intravenously (i.v.) with PBS (control group), anti-CD47 antibody (i.e. T4J), rituximab, or anti-CD47 antibody T4J+ rituximab at a dose of 5 mg/kg, respectively (See, Table 5). The anti-tumor efficacy studies were performed using a twice per week dosing schedule (5 mg/kg) for 4 weeks.
The first day of antibody administration was designated as day 0. Mice were then monitored for tumor development and progression, and observation continued until day 43. Tumor volumes were measured twice a week in two dimensions (length and width) using a caliper, and the volumes were calculated using the following formula: Volume (V)=(L×W×W)/2, where L is tumor length (the longest tumor dimension) and W is tumor width (the longest tumor dimension perpendicular to L). The percentage of tumor growth inhibition (TGI) was calculated as follows: 100%×(1−[(Vtreated(^finalday)−Vtreated(^initial day))/(Vcontrol(^final day)−Vcontrol(^initial day)))]), where V is the tumor volume. Tumor body weight was measured twice per week after randomization and at day 43. Antibody treatment was then stopped after 43 days of study and mice were euthanized and necropsied for evidence of tumors.
Group comparisons were carried out using one-way analysis of variance (ANOVA). Data analysis were performed using IBM SPSS software version 18.0 (IBM, Armonk, N.Y., U.S.). Values of tumor volume and tumor body weight were expressed as mean±standard error of the mean (SEM). A P value of less than 0.05 (p<0.05) was considered statistically significant.

[1] = from tumor volume, i.v., BIW × 4 weeks

Molecule: Cn1c(CCCC(=O)O)nc2cc(N(CCCl)CCCl)ccc21 [Bendamustine]
- Mean Fluorescence Intensity (MFI) CD47 (CD47; 0.008 uM): 9132
- Mean Fluorescence Intensity (MFI) CD47 (CD47; 0.04 uM): 8684
- Mean Fluorescence Intensity (MFI) CD47 (CD47; 0.2 uM): 8687
- Mean Fluorescence Intensity (MFI) CD47 (CD47; 1 uM): 8319
- Mean Fluorescence Intensity (MFI) CD47 (CD47; 5 uM): 9192
- Mean Fluorescence Intensity (MFI) Calreticulin (Calreticulin; 0.008 uM): 68.6
- Mean Fluorescence Intensity (MFI) Calreticulin (Calreticulin; 0.04 uM): 70.1
- Mean Fluorescence Intensity (MFI) Calreticulin (Calreticulin; 0.2 uM): 70.2
- Mean Fluorescence Intensity (MFI) Calreticulin (Calreticulin; 1 uM): 76.3
- Mean Fluorescence Intensity (MFI) Calreticulin (Calreticulin; 5 uM): 86.2
- macrophage phagocytosis (untreated = 1.00) (Toledo Cells; Cpd 0.0016 uM, T4J = 0, R = 0): 1.06
- macrophage phagocytosis (untreated = 1.00) (Toledo Cells; Cpd 0.0016 uM, T4J = 0, R = 0.01 ug/ml): 1.58
- macrophage phagocytosis (untreated = 1.00) (Toledo Cells; Cpd 0.0016 uM, T4J = 0.1 ug/ml, R = 0): 2.53
- macrophage phagocytosis (untreated = 1.00) (Toledo Cells; Cpd 0.0016 uM, T4J = 0.1 ug/ml, R = 0.01 ug/ml): 3.29
- macrophage phagocytosis (untreated = 1.00) (Toledo Cells; Cpd 0.008 uM, T4J = 0, R = 0): 1.00
- macrophage phagocytosis (untreated = 1.00) (Toledo Cells; Cpd 0.008 uM, T4J = 0, R = 0.01 ug/ml): 1.52
- macrophage phagocytosis (untreated = 1.00) (Toledo Cells; Cpd 0.008 uM, T4J = 0.1 ug/ml, R = 0): 2.67
- macrophage phagocytosis (untreated = 1.00) (Toledo Cells; Cpd 0.008 uM, T4J = 0.1 ug/ml, R = 0.01 ug/ml): 3.26
- macrophage phagocytosis (untreated = 1.00) (Toledo Cells; Cpd 0.04 uM, T4J = 0, R = 0): 0.98
- macrophage phagocytosis (untreated = 1.00) (Toledo Cells; Cpd 0.04 uM, T4J = 0, R = 0.01 ug/ml): 1.53
- macrophage phagocytosis (untreated = 1.00) (Toledo Cells; Cpd 0.04 uM, T4J = 0.1 ug/ml, R = 0): 2.57
- macrophage phagocytosis (untreated = 1.00) (Toledo Cells; Cpd 0.04 uM, T4J = 0.1 ug/ml, R = 0.01 ug/ml): 3.19
- macrophage phagocytosis (untreated = 1.00) (Toledo Cells; Cpd 0.2 uM, T4J = 0, R = 0): 0.96
- macrophage phagocytosis (untreated = 1.00) (Toledo Cells; Cpd 0.2 uM, T4J = 0, R = 0.01 ug/ml): 1.41
- macrophage phagocytosis (untreated = 1.00) (Toledo Cells; Cpd 0.2 uM, T4J = 0.1 ug/ml, R = 0): 2.51
- macrophage phagocytosis (untreated = 1.00) (Toledo Cells; Cpd 0.2 uM, T4J = 0.1 ug/ml, R = 0.01 ug/ml): 3.10
- macrophage phagocytosis (untreated = 1.00) (Toledo Cells; Cpd 1 uM, T4J = 0, R = 0): 1.03
- macrophage phagocytosis (untreated = 1.00) (Toledo Cells; Cpd 1 uM, T4J = 0, R = 0.01 ug/ml): 1.46
- macrophage phagocytosis (untreated = 1.00) (Toledo Cells; Cpd 1 uM, T4J = 0.1 ug/ml, R = 0): 2.47
- macrophage phagocytosis (untreated = 1.00) (Toledo Cells; Cpd 1 uM, T4J = 0.1 ug/ml, R = 0.01 ug/ml): 3.05
- phagocytic ability of macrophages (Toledo Cells; triple combination: T4J, Rituximab and the small molecule): does not show the synergistic effects
- Macrophage viability (CellTiter-Glo Luminescent Cell Viability Assay) (macrophages; Cpd 0.002 uM): 6292 and 6220 and 5908
- Macrophage viability (CellTiter-Glo Luminescent Cell Viability Assay) (macrophages; Cpd 0.008 uM): 6248 and 6356 and 6028
- Macrophage viability (CellTiter-Glo Luminescent Cell Viability Assay) (macrophages; Cpd 0.04 uM): 6248 and 6124 and 5788
- Macrophage viability (CellTiter-Glo Luminescent Cell Viability Assay) (macrophages; Cpd 0.2 uM): 6320 and 6664 and 5768
- Macrophage viability (CellTiter-Glo Luminescent Cell Viability Assay) (macrophages; Cpd 1 uM): 6220 and 6200 and 5436
- Macrophage viability (CellTiter-Glo Luminescent Cell Viability Assay) (macrophages; Cpd 5 uM): 6424 and 6308 and 5064
- Macrophage viability (CellTiter-Glo Luminescent Cell Viability Assay) (macrophages; Cpd 25 uM): 5884 and 5724 and 4340
- Macrophage viability (CellTiter-Glo Luminescent Cell Viability Assay) (macrophages; Cpd 50 uM): 5500 and 5736 and 4112
- toxicity to macrophages (macrophages; dose as high as 50 μM): showed toxicity
- toxicity to macrophages (macrophages; dose lower than 10 μM): little toxic

Molecule: Rituximab: anti-CD20 antibody, heavy chain SEQ ID NO: 83, light chain SEQ ID NO: 84
- macrophage phagocytosis (untreated = 1.00) (Toledo Cells; Cpd 0, T4J = 0, R = 0.01 ug/ml, listed as R): 1.36 and 1.31 and 1.57 and 1.38
- phagocytic ability of macrophages (Toledo Cells; agent itself or antibody combination): can promote macrophage phagocytosis
- Tumor Body Weight (mg) on day 43 (Mean ± SEM) (WSU-DLCL2 cells; i.v., BIW × 4 weeks): 1673.7 ± 269.0 mg
- Tumor Volume (mm^3) on day 43 (Mean ± SEM) (WSU-DLCL2 cells; i.v., BIW × 4 weeks): 1578.37 ± 241.53 mm^3
- T/C (%) (WSU-DLCL2 cells; from tumor body weight): 66%
- TGI (%) (WSU-DLCL2 cells; from tumor body weight): 34%
- T/C (%) (WSU-DLCL2 cells; [1]): 73%
- TGI (%) (WSU-DLCL2 cells; [1]): 27%
